The record followed here is patent US20230295145A1, “PYRROLIDINE DERIVATIVES AND METHODS OF USE” (Genentech, Inc., priority 2020, published 2023).

SMILES strings stand for the structures. Read-outs that look alike come from different tables or passages of the source.

Holding throughout (assay type): cell-based
The target in data set [1] is T1, VHL (Homo sapiens, UniProt P40337).
T1 construct: expressed in transfected cells
The data set is described as follows: VHL HEK-293 BRET Assay (VHL NanoBRET Target Engagement Assay). Particulars: HEK 293 RT VHL-NanoLuc stable cells; read-out: IC50. On the procedure: The VHL NanoBRET™ Target Engagement Assay analyzes the apparent affinity of test compounds for VHL in cells by competitive displacement of a VHL NanoBRET™ tracer reversibly bound to a NanoLuc® VHL fusion protein stably expressed in the cells.
Test compounds were transferred to the assay plate (384 Well White Non-Binding Corning Assay Plates (Corning-3574)) using an Echo 555 Liquid Handler (Labcyte) in 2.5 nL increments and, as appropriate, intermediate stock concentrations of compounds, in order to prepare a titration series. 50 nL of control compound (10 mM; parental unlabeled VHL antagonist; see structure below) and 50 nL of DMSO (negative control) were dispensed into the appropriate control wells. DMSO was backfilled to a final volume of 50 nL as required. 50 nl per well of 1 mM VHL NanoBRET™ Tracer in DMSO (NanoBRET™ Tracer-PEG2-590 (see structure below)) was transferred into each well using an Echo 555 (ultimately yielding a final concentration of 1 uM). HEK 293 RT VHL-NanoLuc® stable cells were cultured in DMEM High Glucose with Pyruvate, 10% fetal bovine serum, 2 mg/mL of Geneticin Selective Antibiotic (50 mg/mL) and 2 mM HEPES (1 M). Cells were seeded in Opti-MEM (Life Technologies-11058-021), 1.7×10^5 cells/mL, 40 μl per well into the assay plate, centrifuged at 500 rpm for 30 seconds and incubated for 2 hours. Max Signal control wells consisted of DMSO only treated wells. Minimum Signal control wells contained of 10 uM parental unlabeled VHL antagonist (control compound—see structure below). 3× Complete Substrate plus Inhibitor Solution was prepared in Opti-MEM (consists of a 1:166 dilution of NanoBRET™ Nano-Glo® Substrate plus a 1:500 dilution of Extracellular NanoLuc® Inhibitor in Opti-MEM), and 20 ul was dispensed into each well of the 384-well plate and centrifuged at 1000 rpm for 1 minute, then incubated for 2 minutes at room temperature. Background Signal control wells were prepared without tracer for background correction steps.
Plates were read using a PerkinElmer Envision Reader (model 2104-0020) equipped with Luminescence option (Mirror: BRET2 Enh (PE Barcode 659), Emission Filter: Omega 610LP (Barcode 504), 2nd Emission Filter: Umbelliferone 460 (Barcode 207), Measurement height: 6.5 mm, Measurement time: 1 s). The raw BRET ratio values were calculated by dividing the acceptor emission value (610 nm) by the donor emission value (460 nm) for each sample. To correct for background, the BRET ratio in the absence of tracer (average of no-tracer control samples) was subtracted from the BRET ratio of each sample. Raw BRET units were converted to milliBRET units (mBU) by multiplying each raw BRET value by 1,000. The normalized NanoBRET™ signal was calculated relative to the Max Signal control wells (DMSO treated control wells) and the Minimum Signal control wells. Percentage inhibition was calculated relative to the Minimum Signal control and Maximum Signal control wells. IC50 values were derived by four parameter curve fitting using the Robust method.

Another data set deals with ABC-1. Briefly: Cell Viability Assay (CellTiter-Glo). Particulars: 5 days.
The target in data set [2] is T1, VHL. Briefly: VHL HEK-293 BRET Assay (VHL NanoBRET Target Engagement Assay). The settings on record: IC50 values measured in the presence of digitonin; HEK 293 RT VHL-NanoLuc stable cells; read-out: IC50 + Digi (μM)*.
The next data set has as its system NCI-H23. Briefly: Cell Viability Assay (CellTiter-Glo). The settings on record: 5 days.

T1 sequence (P40337 whole entry): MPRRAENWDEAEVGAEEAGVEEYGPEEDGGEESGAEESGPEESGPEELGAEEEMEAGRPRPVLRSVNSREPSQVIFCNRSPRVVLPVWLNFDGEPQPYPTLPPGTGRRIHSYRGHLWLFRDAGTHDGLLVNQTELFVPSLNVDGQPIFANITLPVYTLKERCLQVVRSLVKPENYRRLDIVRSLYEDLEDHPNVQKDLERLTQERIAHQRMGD
Experimental for ABC-1: (§1) Cell lines were cultured in RPMI-1640, 5% fetal bovine serum, and 2 mM glutamine in a humidified incubator maintained at 37° C. with 5% CO2. Cells were assessed with a Vi-CELL Cell Viability Analyzer (Beckman Coulter; Brea, CA); viability of at least 90% was required for screening. A Multidropä Combi Reagent Dispenser (Thermo Scientific; Waltham, MA) was used to plate cells into Falcons^â 384-well, black, clear-bottom plates (Catalog No. 353962; Corning; Tewksbury, MA) using seeding densities previous determined to achieve approximately 80% confluence at the final time point of the assay. The compounds were prepared at 1000× in advance using an Echo 555 liquid handler (Labcyte; Sunnyvale, CA) and stored in −80° C. until the day of compound addition. On the following day, cells were treated with compounds at final assay concentration 1 uM and 10 uM using a Bravo Automated Liquid-Handling Platform (Agilent; Santa Clara, CA). After 5 days, 25 mL CellTiter-Glo^â reagent was added using a MultiFloä Microplate Dispenser (BioTek; Winooski, VT). Cell lysis was induced by mixing for 30 minutes on an orbital shaker; plates were then incubated at room temperature for 10 minutes to stabilize the luminescent signal. Luminescence was read by a 2104 EnVision^â Multilabel Plate Reader (PerkinElmer; Waltham, MA).
(§2) The data was processed using Genedata Screener^â, Version 15 (Genedata; Basel, Switzerland) to assess compound effects on viability. Compound treated wells were normalized to the median value of 14 DMSO control wells on the same 384 well plate.
Experimental for NCI-H23: as §1, §2

In the case of `CNC(=O)C1CC(O)CN1C(=O)[C@@H](n1cc(C2CCC(C(=O)OC)CC2)nn1)C(C)(C)C` (stereo in doubt) [Compound 829, Methyl 4-[1-[(1S)-1-[(2R,4S)-4-hydroxy-2-(methylcarbamoyl)pyrrolidine-1-carbonyl]-2,2-dimethyl-propyl]triazol-4-yl]cyclohexanecarboxylate], the IC50 on VHL [1] stood at 2910 nM; at VHL [2] it was 5.86 µM. In addition, the “Normalized viability % DMSO” value in the data set with ABC-1 (1 μM) turned out to be 10.6 % DMSO.

With `CC(C)(C)[C@@H](C(=O)N1C[C@H](O)C[C@H]1C(=O)NCC12CCCC(C1)C(=O)N2)n1cc(C2CC2)nn1` (stereo partly drawn) [Compound 110, (2S,4R)-1-[(2S)-2-(4-cyclopropyltriazol-1-yl)-3,3-dimethyl-butanoyl]-4-hydroxy-N-[(7-oxo-6-azabicyclo[3.2.1]octan-5-yl)methyl]pyrrolidine-2-carboxamide], the “Normalized viability % DMSO” value with NCI-H23 (1 μM) is on record as 18.9 % DMSO.

Consider `CC(C)(C)[C@@H](C(=O)N1C[C@H](O)C[C@H]1C(=O)NCc1ncc(-c2ccccc2)s1)n1cc(C2CC2)nn1` [Compound 140, (2S,4R)-1-[(2S)-2-(4-cyclopropyltriazol-1-yl)-3,3-dimethyl-butanoyl]-4-hydroxy-N-[(5-phenylthiazol-2-yl)methyl]pyrrolidine-2-carboxamide], for which the IC50 at VHL [1] was determined as 10 nM; at VHL [2] it was 0.0142 µM. In addition, in the data set with ABC-1 (10 μM), the “Normalized viability % DMSO” value was 45.3 % DMSO.

With `CC(C)(C)[C@@H](C(=O)N1C[C@H](O)C[C@H]1C(=O)NC1CCc2c(Cl)cc(Cl)cc21)n1cc(C2CC2)nn1` (stereo partly drawn) [Compound 169, (2S,4R)-1-[(2S)-2-(4-cyclopropyltriazol-1-yl)-3,3-dimethyl-butanoyl]-N-(4,6-dichloroindan-1-yl)-4-hydroxy-pyrrolidine-2-carboxamide], the IC50 was determined as 1810 nM at VHL [1] and 2.93 µM at VHL [2]. Moreover, the “Normalized viability % DMSO” value in the data set on NCI-H23 (10 μM) was found to be 39.3 % DMSO.

Regarding `CC(C)(C)[C@@H](C(=O)N1C[C@H](O)C[C@H]1C(=O)NC(CO)c1ccc(Br)c(F)c1)n1cc(C2CC2)nn1` (stereo partly drawn) [Compound 174, (2S,4R)-N-[1-(4-bromo-3-fluoro-phenyl)-2-hydroxy-ethyl]-1-[(2S)-2-(4-cyclopropyltriazol-1-yl)-3,3-dimethyl-butanoyl]-4-hydroxy-pyrrolidine-2-carboxamide], the IC50 at VHL [1] is 11.4 nM; at VHL [2] it was 0.0152 µM. Further, in the data set with ABC-1 (10 μM), the “Normalized viability % DMSO” value was 50.7 % DMSO.

Take `CN1CC(CCNC(=O)[C@@H]2C[C@@H](O)CN2C(=O)[C@@H](n2cc(C3CC3)nn2)C(C)(C)C)CC1=O` (stereo partly drawn) [Compound 236, (2S,4R)-1-[(2S)-2-(4-cyclopropyltriazol-1-yl)-3,3-dimethyl-butanoyl]-4-hydroxy-N-[2-(1-methyl-5-oxo-pyrrolidin-3-yl)ethyl]pyrrolidine-2-carboxamide]: the “Normalized viability % DMSO” value in the data set with NCI-H23 (1 μM) is 18.7 % DMSO.

Take `CC(C)(C)[C@@H](C(=O)N1C[C@H](O)C[C@H]1C(=O)N[C@@H]1C[C@@H](c2ccccc2)Oc2ccccc21)n1cc(C2CC2)nn1` [Compound 343, (2S,4R)-1-[(2S)-2-(4-cyclopropyltriazol-1-yl)-3,3-dimethyl-butanoyl]-4-hydroxy-N-[(2S,4R)-2-phenylchroman-4-yl]pyrrolidine-2-carboxamide]: the IC50 on VHL [1] came out at 15.6 nM; on VHL [2] it was 0.0321 µM. Further, the “Normalized viability % DMSO” value in the data set on ABC-1 (10 μM) is reported as 44.1 % DMSO.

As to `CCc1onc(C)c1CNC(=O)[C@@H]1C[C@@H](O)CN1C(=O)[C@@H](n1cc(C2CC2)nn1)C(C)(C)C` [Compound 405, (2S,4R)-1-[(2S)-2-(4-cyclopropyltriazol-1-yl)-3,3-dimethyl-butanoyl]-N-[(5-ethyl-3-methyl-isoxazol-4-yl)methyl]-4-hydroxy-pyrrolidine-2-carboxamide], the figures for the IC50 at VHL [1] and on VHL [2] were 2340 nM and 3.18 µM, respectively. In addition, the “Normalized viability % DMSO” value in the data set with ABC-1 (10 μM) was found to be 7.6 % DMSO.

For `CC(C)(C)[C@@H](C(=O)N1C[C@H](O)C[C@H]1C(=O)NCC1CCS(=O)(=O)c2ccccc21)n1cc(C2CC2)nn1` (stereo partly drawn) [Compound 420, (2S,4R)-1-[(2S)-2-(4-cyclopropyltriazol-1-yl)-3,3-dimethyl-butanoyl]-N-[(1,1-dioxo-3,4-dihydro-2H-thiochromen-4-yl)methyl]-4-hydroxy-pyrrolidine-2-carboxamide], the figures for the IC50 at VHL [1] and on VHL [2] were 3890 nM and 4.3 µM, respectively. Moreover, the “Normalized viability % DMSO” value in the data set with NCI-H23 (1 μM) came to 10.8 % DMSO.

On to `CC(C)(C)[C@@H](C(=O)N1C[C@H](O)C[C@H]1C(=O)NCCC1(O)CN(C(c2ccccc2)c2ccccc2)C1)n1cc(C2CC2)nn1` [Compound 449, (2S,4R)-N-[2-(1-benzhydryl-3-hydroxy-azetidin-3-yl)ethyl]-1-[(2S)-2-(4-cyclopropyltriazol-1-yl)-3,3-dimethyl-butanoyl]-4-hydroxy-pyrrolidine-2-carboxamide], for which the IC50 is 802 nM at VHL [1] and 2.17 µM on VHL [2]. For the same molecule, in the data set with NCI-H23 (10 μM), the “Normalized viability % DMSO” value is recorded as 43.4 % DMSO.

As for `CC[S+]([O-])C1CCCCC1NC(=O)[C@@H]1C[C@@H](O)CN1C(=O)[C@@H](n1cc(C2CC2)nn1)C(C)(C)C` (stereo partly drawn) [Compound 554, (2S,4R)-1-[(2S)-2-(4-cyclopropyltriazol-1-yl)-3,3-dimethyl-butanoyl]-N-(2-ethylsulfinylcyclohexyl)-4-hydroxy-pyrrolidine-2-carboxamide], the IC50 at VHL [1] is 17200 nM; at VHL [2], 22.2 µM. Besides, the “Normalized viability % DMSO” value in the data set with ABC-1 (10 μM) was 38.2 % DMSO.

With `CNC(=O)[C@@H]1C[C@@H](O)CN1C(=O)[C@@H](n1cc(-c2cnc(F)cc2C)nn1)C(C)(C)C` [Compound 792, (2S,4R)-1-[(2S)-2-[4-(6-fluoro-4-methyl-3-pyridyl)triazol-1-yl]-3,3-dimethyl-butanoyl]-4-hydroxy-N-methyl-pyrrolidine-2-carboxamide], the IC50 was 1920 nM at VHL [1] and 2.46 µM at VHL [2]. For the same molecule, the “Normalized viability % DMSO” value in the data set with ABC-1 (10 μM) worked out at 13.9 % DMSO.

As for `CNC(=O)[C@@H]1C[C@@H](O)CN1C(=O)[C@@H](n1cc(Cn2cnc3cc(C)c(C)cc32)nn1)C(C)(C)C` [Compound 914, (2S,4R)-1-[(2S)-2-[4-[(5,6-dimethylbenzimidazol-1-yl)methyl]triazol-1-yl]-3,3-dimethyl-butanoyl]-4-hydroxy-N-methyl-pyrrolidine-2-carboxamide], the figures for the IC50 on VHL [1] and at VHL [2] were 5460 nM and 3 µM, respectively. Moreover, in the data set with NCI-H23 (10 μM), the “Normalized viability % DMSO” value is listed as 44.5 % DMSO.

For the molecule `CC(C)(C)[C@@H](C(=O)N1C[C@H](O)C[C@H]1C(=O)NCCCn1cnc2c(N)ncnc21)n1cc(C2CC2)nn1` [Compound 1129, (2S,4R)-N-[3-(6-aminopurin-9-yl)propyl]-1-[(2S)-2-(4-cyclopropyltriazol-1-yl)-3,3-dimethyl-butanoyl]-4-hydroxy-pyrrolidine-2-carboxamide], the IC50 came to 17300 nM on VHL [1] and 2.33 µM at VHL [2]. Moreover, the “Normalized viability % DMSO” value in the data set with ABC-1 (10 μM) was found to be 4.2 % DMSO.

For `Cn1c(CCNC(=O)[C@@H]2C[C@@H](O)CN2C(=O)[C@@H](n2cc(C3CC3)nn2)C(C)(C)C)nc2c(F)cccc21` [Compound 1131, (2S,4R)-1-[(2S)-2-(4-cyclopropyltriazol-1-yl)-3,3-dimethyl-butanoyl]-N-[2-(4-fluoro-1-methyl-benzimidazol-2-yl)ethyl]-4-hydroxy-pyrrolidine-2-carboxamide], the “Normalized viability % DMSO” value in the data set with NCI-H23 (1 μM) is 21.7 % DMSO.
